Here are results for three compounds from PMC4862888 (Journal of chromatography. B, Analytical technologies in …, 2015).

The assay concerns the target human serum albumin (HSA) (Homo sapiens, UniProt P02768). As to the kind of experiment: zonal elution, high-performance affinity chromatography on entrapped HSA. The format is binding.

Sequence of human serum albumin (HSA) (P02768 25-609): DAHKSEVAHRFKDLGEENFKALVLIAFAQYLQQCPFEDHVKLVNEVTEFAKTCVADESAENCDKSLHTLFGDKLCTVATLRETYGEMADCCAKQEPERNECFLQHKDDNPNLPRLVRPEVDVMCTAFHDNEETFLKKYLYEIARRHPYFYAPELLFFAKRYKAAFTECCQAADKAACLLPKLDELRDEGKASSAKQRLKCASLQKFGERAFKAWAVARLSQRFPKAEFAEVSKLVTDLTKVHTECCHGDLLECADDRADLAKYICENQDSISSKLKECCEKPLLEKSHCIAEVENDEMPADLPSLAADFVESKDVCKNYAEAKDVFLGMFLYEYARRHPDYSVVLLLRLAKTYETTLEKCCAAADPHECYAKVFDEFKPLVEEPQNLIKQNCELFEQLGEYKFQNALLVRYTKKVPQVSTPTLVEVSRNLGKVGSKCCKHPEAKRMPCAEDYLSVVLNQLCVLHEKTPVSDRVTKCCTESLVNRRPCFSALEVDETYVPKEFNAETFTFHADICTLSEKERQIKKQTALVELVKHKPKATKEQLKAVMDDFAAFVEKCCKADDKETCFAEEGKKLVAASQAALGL

As usually defined, the Kd is a measure of binding affinity in units of concentration. For `CN(C)CCC=C1c2ccccc2CCc2ccccc21` [amitriptyline], the Kd was 17.9 µM.
With `O=C(N[C@H](CO)[C@H](O)c1ccc([N+](=O)[O-])cc1)C(Cl)Cl` [chloramphenicol], the Kd was 625 µM.
`CNCCC=C1c2ccccc2CCc2ccccc21` [nortriptyline] gave a Kd of 16.1 µM.
